Results reported in US8552013B2, “Heterocyclic compounds based on N6-substituted adenine, methods of their preparation, their use for preparation of drugs, cosmetic preparations and growth regulators, pharmaceutical preparations, cosmetic preparations and growth regulators containing these compounds” (USTAV Experimentalni Botaniky Akademie Ved Ceske Republiky, priority 2001, dated 2013).

How the values were obtained:
[1] = system: human diploid fibroblasts (HCA cells); assay: Senescence, beta-galactosidase staining of human diploid fibroblasts; assay type: cell-based; conditions: for SENESCENT CELLS (%) HCA25: passage 25; for SENESCENT CELLS (%) HCA45: passage 45; for SENESCENT CELLS (%) HCA80: passage 80
Description: In this example, human diploid fibroblasts (HCA cells of various passage levels: passage 25—designated HCA25; passage 45—designated HCA45; passage 80—designated HCA80) were stained for β-galactosidase activity. The medium used for cell cultivation was removed, the cells were washed twice in […], and fixed in 2-3 ml of fixing solution comprised of a 2% formaldehyde and 0.2% glutaraldehyde in PBS. The cells were incubated at room temperature for 5 minutes, then washed twice with PBS. The cells were subsequently incubated at 37° C. (without CO2) for 1 to 16 hours in 2-3 ml of a solution comprising potassium ferricyanide (5 mM), potassium ferrocyanide (5 mM), MgCl2 (2 mM), X-gal (5-bromo-4-chloro-3-indolyl-β-D-galactopyranoside) (1 mg/ml), in citric/phosphate buffer, pH 6.0). […] In this experiment, senescent cells, but not other cells were stained blue due to the action of β-galactosidase on the substrate (FIG. 4).

Human lymphocytes = assay: Immunosuppressive activity, 3H-thymidine incorporation in concanavalin A activated lymphocytes; assay type: cell-based; conditions: Lymphocyte, 72 hours, [3H]-TdR, read-out: Human lymphocytes ED50
Excerpt: One of the most important parameters of specific cellular immunity is proliferative response of lymphocytes to antigens or polyclonal mitogens. The majority of normal mammalian peripheral lymphocytes comprise resting cells. Antigens or nonspecific polyclonal mitogens have the capacity to activate lymphoid cells and this is accompanied by dramatic changes of intracellular metabolism (mitochondrial activity, protein synthesis, nucleic acids synthesis, formation of blastic cells and cellular proliferation). […] Variety of in vitro assays was developed to measure proliferative response of lymphocytes. The most commonly used is ^3H-thymidine incorporation method.
During cell proliferation, DNA has to be replicated before the cell is divided into two daughter cells. This close association between cell doublings and DNA synthesis is very attractive for assessing cell proliferation. If labelled DNA precursors are added to the cell culture, cells that are about to divide incorporate the labelled nucleotide into their DNA. Traditionally, those assays usually involve the use of radiolabelled nucleosides, particularly tritiated thymidine ([^3H]-TdR). The amount of [^3H]-TdR incorporated into the cellular DNA is quantified by liquid scintillation counting.
Human heparinized peripheral blood was obtained from healthy volunteers by cubital vein punction. The blood was diluted in PBS (1:3) and mononuclear cells were separated by centrifugation in Ficoll-Hypaque density gradient (Pharmacia, 1.077 g/ml) at 2200 rpm for 30 minutes. Following centrifugation, lymphocytes were washed in PBS and resuspended in cell culture medium (RMPI 1640, 2 mM glutamine, 100 U/ml penicillin, 100 μg/ml streptomycin, 10% fetal calf serum and sodium bicarbonate).
The cells were diluted at target density of 1,100,000 cells/ml were added by pipette (180 μl) into 96/well microtiter plates. Four-fold dilutions of the intended test concentration were added at time zero in 20 μl aliquots to the microtiter plate wells. Usually, test compound was evaluated at six 4-fold dilutions. In routine testing, the highest well concentration was 266.7 μM. All drug concentrations were examined in duplicates. All wells with exception of unstimulated controls were activated with 50 μl of concanavalin A (25 μg/ml). Incubations of cells with test compounds lasted for 72 hours at 37° C., in 5% CO2 atmosphere and 100% humidity. At the end of incubation period, the cells were assayed by using the [^3H]-TdR:
Cell cultures were incubated with 0.5 μCi (20 μl of stock solution 500 μCi/ml) per well for 6 hours at 37° C. and 5% CO2. The automated cell harvester was used to lyse cells in water and adsorb the DNA onto glass-fiber filters in the format of microtiter plate. The DNA incorporated [^3H]-TdR was retained on the filter while unincorporated material passes through. The filters were dried at room temperature overnight, sealed into a sample bag with 10-12 ml of scintillant. The amount of [^3H]-TdR present in each filter (in cpm) was determined by scintillation counting in a Betaplate liquid scintillation counter. The effective dose of immunosuppressant (ED) was calculated using the following equation: ED=(CCPMdrug exposed well/mean CCPMcontrol wells)×100%. The ED50 value, the drug concentration inhibiting proliferation of 50% of lymphocytes, was calculated from the obtained dose response curves.

HOS = assay: Calcein AM cytotoxicity, HOS; assay type: cell-based; conditions: Homo sapiens, HOS, 72 h
Excerpt: One of the parameters used, as the basis for cytotoxicity assays, is the metabolic activity of viable cells. For example, a microtiter assay, which uses the Calcein AM, is now widely used to quantitate cell proliferation and cytotoxicity. For instance, this assay is used in drug screening programs and in chemosensitivity testing. Because only metabolically active cells cleave Calcein AM, these assays detect viable cells exclusively. The quantity of reduced Calcein AM corresponds to the number of vital cells in the culture.
Human T-lymphoblastic leukemia cell line CEM; promyelocytic HL-60 and monocytic U937 leukemias; breast carcinoma cell lines MCF-7, BT549, MDA-MB-231; glioblastoma U87MG cells; cervical carcinoma cells HELA; sarcoma cells U2OS and Saos2; hepatocellular carcinoma HepG2; mouse fibroblasts NIH3T3; mouse immortalized bone marrow macrophages B2.4 and B10A.4; P388D1 and L1210 leukemia; B16 and B16F10 melanomas were used for routine screening of compounds. The cells were maintained in Nunc/Corning 80 cm^2 plastic tissue culture flasks and cultured in cell culture medium (DMEM with 5 g/l glucose, 2 mM glutamine, 100 U/ml penicillin, 100 μg/ml streptomycin, 10% fetal calf serum and sodium bicarbonate).
The cell suspensions that were prepared and diluted according to the particular cell type and the expected target cell density (2.500-30.000 cells per well based on cell growth characteristics) were added by pipette (80 μl) into 96/well microtiter plates. Inoculates were allowed a pre-incubation period of 24 hours at 37° C. and 5% CO2 for stabilisation. Four-fold dilutions of the intended test concentration were added at time zero in 20 μl aliquots to the microtiter plate wells. Usually, test compound was evaluated at six 4-fold dilutions. In routine testing, the highest well concentration was […], but it can be the matter of change dependent on the agent. All drug concentrations were examined in duplicates. Incubations of cells with the test compounds lasted for 72 hours at 37° C., in 5% CO2 atmosphere and 100% humidity. At the end of incubation period, the cells were assayed by using the Calcein AM. Ten microliters of the stock solution were pipetted into each well and incubated further for 1 hours. Fluorescence (FD) was measured with the Labsystem FIA Reader Fluoroscan Ascent (UK). The tumour cell survival (GI50) was calculated using the following equitation: TCS═(FDdrug exposed well/mean FDcontrol wells)×100%. The GI50 value, the drug concentration lethal to 50% of the tumour cells, was calculated from the obtained dose response curves (FIG. 1).

[2] = system: Rosa hybrida 'Pailin' explants; assay: Early shoot senescence of tissue cultured roses; assay type: in vivo; conditions: 10 μM in medium
Description: Rosa hybrida ‘Pailin’ (a cut rose) was cultured in 350 ml vessels with a screw on polycarbonate lid. Each culture vessel contained 100 ml autoclaved medium (120° C., 20 min). The cultures were maintained at 23±2° C. under a 16 h photoperiod at 40 μM m^−2 s^−1 PAR. The basal medium (BMR) contained Murashige and Skoog (1962) macroelements, microelements and vitamins, 36.7 mg/l NaFeEDTA, 50 mg/l NaFeEDDHA, 100 mg/l […] myo-inositol, 30 g/l sucrose, 100 mg/l glycine, 50 mg/l calcium pantothenate, 100 mg/l L-glutamine and 7 g/l agar-agar. This medium was supplemented with 10 μM BA, mT and mMeOBAP. The last 2 cytokinins were filter sterilised and added after autoclaving the medium in the vessels. The control medium didn't contain any cytokinin. After a culture period of 6 weeks, scoring senescence symptoms was started.

[3] = system: Rosa hybrida (pot rose cultivar) explants; assay: In vitro and post vitro shoot multiplication and rooting of rose; assay type: in vivo
Description: The aim of this experiment was to test whether the new compounds are of practical use in tissue culture practice. The multiplication rate was investigated and the post vitro effects on rooting were examined. Rosa hybrida (pot rose cultivar) was cultured in 350 ml vessels with a screw on polycarbonate lid. Each culture vessel contained 100 ml autoclaved medium (120° C., 20 min). The cultures were maintained at 23±2° C. under a 16 h photoperiod at 40 μM m^−2 s^−1 PAR. The basal medium (BMR) contained Murashige and Skoog (1962) macroelements, microelements and vitamins, 95 μM NaFeEDTA, 555 μM myo-inositol, 111 mM sucrose, 1.332 mM glycine, 684 μM L-glutamine and 7 g/l agar. This medium was supplemented with 10 μM BA, mT, oMeOBAP or mMeOBAP (compound no. 14 and 15, respectively). The control medium didn't contain any cytokinin. After a culture period of 8 weeks, the number of induced shoots per explant was determined, as well as root number/explant and total root length/explant. The roots were removed and the explants (shoot clusters) were planted in unfertilised peat. After four weeks of acclimatising in a fog unit, root number and root length was determined.

[4] = Ex vitro, four weeks of acclimatising

| Compound | SENESCENT CELLS (%) HCA25 [1] | SENESCENT CELLS (%) HCA45 [1] | SENESCENT CELLS (%) HCA80 [1] | EC50 (Human lymphocytes) | IC50 (HOS) | relative number of dead plants in relation to culture time [2] | shoot multiplication and rooting, in words ([3]; 10 μM) | Root number per plant [3, 4] | Total root length per plant [3, 4] | Flower number per explant ([3]; In vitro, 10 μM, 8 weeks) | Number of new shoots per explant ([3]; In vitro, 10 μM, 8 weeks) | Root number per explant ([3]; In vitro, 10 μM, 8 weeks) | Total root length per explant ([3]; In vitro, 10 μM, 8 weeks) |
| --- | --- | --- | --- | --- | --- | --- | --- | --- | --- | --- | --- | --- | --- |
| Nc1cc(Nc2ncnc3nc[nH]c23)ccc1Cl [3-amino-4-chloroanilino, 6-(3-amino-4-chloroanilino)purine] | 4% | 6% | 22% | 8.3 µM |  |  |  |  |  |  |  |  |  |
| Nc1ccc(Nc2ncnc3nc[nH]c23)cc1Cl [3-chloro-4-aminoanilino, 6-(3-chloro-4-aminoanilino)purine] | 5% | 5% | 24% | 12 µM |  |  |  |  |  |  |  |  |  |
| Nc1cc(Cl)cc(Nc2ncnc3nc[nH]c23)c1 [3-chloro-5-aminoanilino, 6-(3-chloro-5-aminoanilino)purine] | 3% | 6% | 24% | 12.4 µM |  |  |  |  |  |  |  |  |  |
| Clc1cccc(Nc2ncnc3nc[nH]c23)c1 [3-chloroanilino, 6-(3-chloroanilino)purine] | 4% | 5% | 25% | 7.2 µM |  |  |  |  |  |  |  |  |  |
| Brc1ccc(Nc2ncnc3nc[nH]c23)cc1 [4-bromoanilino, 6-(4-bromoanilino)purine] | 5% | 3% | 25% | 4.7 µM |  |  |  |  |  |  |  |  |  |
| Clc1ccc(Nc2ncnc3nc[nH]c23)cc1 [4-chloroanilino, 6-(4-chloroanilino)purine] | 5% | 5% | 26% | 6.2 µM |  |  |  |  |  |  |  |  |  |
| c1ccc(CNc2ncnc3nc[nH]c23)cc1 [BAP, 6-benzylaminopurine, reference compound] |  |  |  |  | > 167 µM | looks like a sigmoid curve | high shoot multiplication rate, but the shoots rooted badly | 0.6 | 1.1 cm | 0.00 | 3.8 | 0.0 | 0.0 cm |
